{"source": "paper PMC2879341", "about": "(Chembiochem : a European journal of chemical biology, 2009)", "biological_target": "T1, GilR (Streptomyces griseoflavus, UniProt Q7X2G7)", "T1 sequence (Q7X2G7 1-498)": "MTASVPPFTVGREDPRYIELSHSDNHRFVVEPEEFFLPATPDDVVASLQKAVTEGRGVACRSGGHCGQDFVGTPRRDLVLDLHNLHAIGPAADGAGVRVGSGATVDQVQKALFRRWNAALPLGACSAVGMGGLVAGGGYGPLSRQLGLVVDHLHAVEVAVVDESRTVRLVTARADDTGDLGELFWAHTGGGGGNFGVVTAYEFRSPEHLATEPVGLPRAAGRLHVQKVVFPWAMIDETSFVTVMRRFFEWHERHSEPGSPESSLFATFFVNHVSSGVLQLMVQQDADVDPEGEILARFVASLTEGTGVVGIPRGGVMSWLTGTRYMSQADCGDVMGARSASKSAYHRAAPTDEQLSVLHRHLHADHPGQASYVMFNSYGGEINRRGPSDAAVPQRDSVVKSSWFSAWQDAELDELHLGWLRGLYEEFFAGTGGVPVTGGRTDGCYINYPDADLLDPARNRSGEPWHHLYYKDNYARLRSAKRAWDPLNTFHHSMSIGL", "assay": "UV spectrum of purified protein", "type": "binding", "conditions": "covalent", "data": [{"smiles": "Cc1cc2nc3c(=O)[nH]c(=O)nc-3n(C[C@H](O)[C@H](O)[C@H](O)COP(=O)(O)OP(=O)(O)OC[C@H]3O[C@@H](n4cnc5c(N)ncnc54)[C@H](O)[C@@H]3O)c2cc1C", "note": "[FAD]", "values": [{"measurement": "UV spectrum of purified protein; further analysis in supplement", "result": "FAD in fact is covalently bound to the enzyme (see the Supporting Information)"}]}]}
